Data on 8 compounds can be found in patent US5470872A, “Benzopyranols” (Beecham Group plc, priority 1988, dated 1995).

The structures appear in SMILES notation.

The IC50 is the concentration that inhibits the measured activity by half. Low values mean inhibition by little substance, high ones a need for much substance.

The test system of test [1] is guinea pig tracheal spiral preparations. Briefly: Bronchodilation in vitro; guinea pig tracheal spiral preparations. The test is classed as cell-based. To be noted: Cavia porcellus, relaxation of guinea pig tracheal spirals, relative to total relaxation with 10^-3 M isoprenaline; for Emax: read-out: I.A (efficacy, Intrinsic Activity). The protocol:
(a) Bronchodilation in vitro; guinea pig tracheal spiral preparations
Male guinea pigs (300-600 g) were stunned by a blow to the head and bled from the carotid artery. The trachea was exposed, dissected free of connective tissue, and transferred to oxygenated krebs solution at 37° C. Next, spirals (2 per trachea) were prepared by cutting the whole trachea spirally along its longitudinal axis and then dividing this spiral lengthwise. Each preparation was mounted, using silk thread, in a 10 ml organ bath filled with krebs solution at 37° C. and bubbled with 5% CO2 with O2. The resting tension of the preparations was set at 2 g and changes in muscle tension were monitored isometrically by means of a UFI (2 oz) force and displacement transducer (Ormed Ltd) connected to a Linseis pen recorder. All preparations were allowed to equilibrate for 60 minutes. During this equilibration period the preparations were washed by upward displacement at 15 minute intervals and, if necessary, the resting tension was readjusted to 2 g using a mechanical micromanipulator system.
Once a steady resting tension had been obtained, the preparations were dosed cumulatively with the test compound (10^-8 -2×10^-5 M), and finally a maximum relaxation achieved by addition of 10^-3 M isoprenaline. The fall in tension evoked by the test compound was expressed as a percentage of the total relaxation evoked in the presence of 10^-3 M isoprenaline. Appropriate concentration-relaxation curves were then constructed and values for potency (IC50) and efficacy (Intrinsic Activity, I.A.) were obtained.
The composition of Krebs solution is: sodium chloride 118.07 mM, sodium hydrogen carbonate 26.19 mM, potassium chloride 4.68 mM, potassium orthophosphate 1.18 mM, magnesium sulphate septahydrate 1.8 mM and calcium chloride 2.52 mM; pH ca. 7.45.

Test [2] has as its system Spontaneously hypertensive rats. The experiment in a line: Blood pressure lowering activity, tail cuff method, spontaneously hypertensive rats. Format: in vivo, rat. As to the method: Blood Pressure Lowering Activity
Systolic blood pressures were recorded by a modification of the tail cuff method described by I. M. Claxton, M. G. Palfreyman, R. H. Poyser, R. L. Whiting, European Journal of Pharmacology, 37,179 (1976). A W+W BP recorder, model 8005 was used to display pulses. Prior to all measurements rats were placed in a heated environment (33.5°±0.5° C.) before transfer to a restraining cage. Each determination of blood pressure was the mean of at least 6 readings. Spontaneously hypertensive rats (ages 12-18 weeks) with systolic blood pressures >180 mmHg were considered hypertensive.

Regarding `CC1(C)Oc2ccc(C(F)(F)C(F)(F)F)cc2[C@@H](N2CCCC2=O)[C@@H]1O` (relative stereo) [Example 1, Trans-3,4-Dihydro-2,2-dimethyl-6-pentafluoroethyl-4-(2-oxopyrrolidin-1-yl)-2H-1-benzopyran-3-ol], in test [1], the IC50 amounted to 190 nM and the Emax was found to be 88%. Besides, in test [2] (0.1 mg/kg p.o.), the “% change in systolic B.P. 1 h” value is listed as -19 ± 3%, the “% change in systolic B.P. 2 h” value was -30 ± 2% and the “% change in systolic B.P. 4 h” value was -28 ± 2%.
With `CC1(C)Oc2ccc(C(F)(F)C(F)(F)F)cc2[C@@H](N2CCCCC2=O)[C@@H]1O` (relative stereo) [Example 4, Trans-3,4-dihydro-2,2-dimethyl-4-(2-oxopiperidin-1-yl)-6-pentafluoroethyl-2H-1-benzopyran-3-ol], in test [1], the Emax is 90%. Besides, in test [2] (0.3 mg/kg p.o.), the “% change in systolic B.P. 1 h” value is recorded as -36 ± 3%, the “% change in systolic B.P. 2 h” value is -30 ± 1% and the “% change in systolic B.P. 4 h” value is -26 ± 2%.
On to `CC1(C)Oc2ccc(C(F)(F)C(F)(F)F)cc2[C@@H](n2ccccc2=O)[C@@H]1O` (relative stereo) [Example 5, Trans-3,4-dihydro-2,2-dimethyl-6-pentafluoroethyl-4-(2(1H)-pyridon-1-yl)-2H-1-benzopyran-3-ol], for which, in test [1], the IC50 was found to be 150 nM and the Emax was 97%.
Turning to `CC1(C)C=C(N2CCCC2=O)c2cc(C(F)(F)C(F)(F)F)ccc2O1` [Example 2, 2,2-Dimethyl-6-pentafluoroethyl-4-(2-oxopyrrolidin-1-yl)-2H-1-benzopyran], in test [1], the 50% inhibitory concentration (IC50) stood at 98 nM and the Emax was found to be 96%. In test [2] (1.0 mg/kg p.o.), the “% change in systolic B.P. 1 h” value is given as -38 ± 2%, the “% change in systolic B.P. 2 h” value is -24 ± 10% and the “% change in systolic B.P. 4 h” value was -18 ± 6%.
`CC1(C)Oc2ccc(C(O)C(F)(F)F)cc2[C@@H](N2CCCC2=O)[C@@H]1O` (some centres unmarked) [Example 3]: in test [1], inhibition was half-maximal at 370 nM (IC50) and the Emax amounted to 89%. In test [2] (0.3 mg/kg p.o.), the “% change in systolic B.P. 1 h” value is on record as -40 ± 10%, the “% change in systolic B.P. 2 h” value is reported as -29 ± 7% and the “% change in systolic B.P. 4 h” value was -25 ± 7%.
As for `CC1(C)Oc2ccc(C(F)(F)C(F)(F)F)cc2[C@@H](N2CCCCC2=O)[C@@H]1O` [Example 6, (-)-Trans-3,4-dihydro-2,2-dimethyl-4-(2-oxopiperidin-1-yl)-6-pentafluoroethyl-2H-1-benzopyran-3-ol], the Emax in test [1] was found to be 93%.
`CC1(C)C=C(N2CCCCC2=O)c2cc(C(F)(F)C(F)(F)F)ccc2O1` [Example 8, 2,2-Dimethyl-6-pentafluoroethyl-4-(2-oxopiperidin-1-yl)-2H-1-benzopyran]: in test [1], the half-maximal inhibitory concentration (IC50) amounted to 190 nM and the Emax came to 88%.
As for `CC1(C)C=C(n2ccccc2=O)c2cc(C(F)(F)C(F)(F)F)ccc2O1` [Example 9, 2,2-Dimethyl-6-pentafluoroethyl-4-(2(1H)pyridon-1-yl)-2H-1-benzopyran], in test [1], half-maximal inhibition (IC50) required 71.5 nM and the Emax was 84%.
